{
  "source": "patent US9149536B2",
  "about": "“Conjugated antimicrobial agents” (priority 2009, dated 2015)",
  "key": {"E. coli DNA gyrase": {"biological_target": "E. coli DNA gyrase (Escherichia coli, UniProt P0AES4+P0AES6)", "sequence (P0AES4 whole entry, one chain of several)": "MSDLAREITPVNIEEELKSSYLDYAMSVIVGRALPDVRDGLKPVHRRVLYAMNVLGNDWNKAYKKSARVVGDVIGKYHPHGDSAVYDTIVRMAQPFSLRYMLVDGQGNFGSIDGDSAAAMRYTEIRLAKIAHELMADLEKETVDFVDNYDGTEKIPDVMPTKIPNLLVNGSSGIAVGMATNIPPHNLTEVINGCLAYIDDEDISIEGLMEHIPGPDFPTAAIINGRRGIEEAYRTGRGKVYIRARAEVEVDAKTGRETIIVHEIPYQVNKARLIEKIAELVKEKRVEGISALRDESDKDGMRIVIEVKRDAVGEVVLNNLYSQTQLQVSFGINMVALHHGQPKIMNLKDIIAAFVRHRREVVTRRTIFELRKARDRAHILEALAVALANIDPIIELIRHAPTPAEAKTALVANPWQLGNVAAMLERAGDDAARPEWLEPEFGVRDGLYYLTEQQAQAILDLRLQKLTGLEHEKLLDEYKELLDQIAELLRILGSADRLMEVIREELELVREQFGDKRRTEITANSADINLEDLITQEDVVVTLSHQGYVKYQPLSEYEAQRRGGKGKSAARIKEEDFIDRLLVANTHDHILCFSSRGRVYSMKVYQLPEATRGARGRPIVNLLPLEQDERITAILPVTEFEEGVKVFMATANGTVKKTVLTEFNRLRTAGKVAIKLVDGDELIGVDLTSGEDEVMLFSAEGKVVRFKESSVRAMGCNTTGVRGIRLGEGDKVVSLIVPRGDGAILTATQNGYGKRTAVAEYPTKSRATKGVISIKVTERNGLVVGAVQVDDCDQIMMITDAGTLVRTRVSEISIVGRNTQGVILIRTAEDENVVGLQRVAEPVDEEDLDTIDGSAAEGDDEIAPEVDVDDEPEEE", "conditions": "supercoiling assay, relaxed pBR322"}, "APH(3′)-IIIa enzyme": {"biological_target": "T1, APH(3′)-IIIa enzyme (Enterococcus faecalis, UniProt P0A3Y5)", "T1 construct": "made in house; host or cells: E. coli BL21 carrying pETSACG1 (inferred)", "T1 sequence (P0A3Y5 whole entry)": "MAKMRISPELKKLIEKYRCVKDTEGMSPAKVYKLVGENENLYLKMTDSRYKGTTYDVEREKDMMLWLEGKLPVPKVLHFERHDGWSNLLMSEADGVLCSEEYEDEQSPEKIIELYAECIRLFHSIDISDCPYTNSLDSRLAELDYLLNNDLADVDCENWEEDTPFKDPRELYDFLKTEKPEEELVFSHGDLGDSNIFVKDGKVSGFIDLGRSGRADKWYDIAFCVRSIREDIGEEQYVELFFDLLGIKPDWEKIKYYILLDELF", "format": "biochemical", "conditions": "compound as substrate of APH(3′)-IIIa"}, "E. coli ATCC 25922": {"system": "E. coli ATCC 25922", "test": "MIC, double-microdilution, E. coli ATCC 25922", "format": "cell-based, Escherichia coli", "conditions": "Escherichia coli, ATCC25922; Table 4; read-out: MIC E. coli ATCC 25922"}, "E. coli AG100A": {"system": "E. coli AG100A", "test": "MIC, double-microdilution, E. coli AG100A", "format": "cell-based, Escherichia coli", "conditions": "Escherichia coli, AG100A, read-out: MIC E. coli AG100A, Table 4; kanamycin resistant, APH(3′)-I"}, "E. coli R477-100": {"system": "E. coli R477-100", "test": "MIC, double-microdilution, E. coli R477-100", "format": "cell-based, Escherichia coli", "conditions": "Escherichia coli, R477100, read-out: MIC E. coli R477-100"}, "[1]": {"system": "bacterial protein synthesis", "test": "In vitro coupled transcription/translation assay, E. coli S30 extract", "format": "biochemical", "conditions": "luciferase readout", "protocol": "Protein translation inhibition by the different compounds was quantified in a coupled transcription/translation assay by using E. coli S30 extracts for circular DNA with the pBEST/uc plasmid (Promega), according to the manufacturer's protocol.\nTranslation reactions (25 μl) that contained variable concentrations of the tested compound were incubated at 37° C. for 60 minutes, cooled on ice for 5 minutes, and diluted with a dilution reagent (tris-phosphate buffer (25 mM, pH 7.8), DTT (2 mM), 1,2-diaminocyclohexanetetraacetate (2 mM), glycerol (10%), Triton X-100 (1%) and BSA (1 mg/ml)) into 96-well plates. The luminescence was measured immediately after the addition of the Luciferase Assay Reagent (50 μl; Promega), and the light emission was recorded with a Victor3™ Plate Reader (Perkin-Elmer). The concentration of half-maximal inhibition (IC50) was obtained from fitting concentration-response curves to the data of at least two independent experiments by using Grafit 5 software (Leatherbarrow, R. J. Erithacus Software Ltd: Horley, U.K., 2001).\n(§1) Relaxation assays were conducted with E. coli TopoIV."}, "MRSA ATCC 43300": {"system": "MRSA ATCC 43300", "test": "microbe, parasite or virus in culture", "format": "cell-based, S. aureus", "conditions": "Staphylococcus aureus, read-out: MIC MRSA ATCC 43300"}, "E. coli XL1 blue": {"system": "E. coli XL1 blue", "test": "microbe, parasite or virus in culture", "format": "cell-based", "conditions": "Escherichia coli, XL1BLUE; background strain; read-out: MIC XL1 blue", "protocol": "(§2) For this purpose, exemplary conjugates, according to some embodiments of the present invention, were tested against five isogenic E. coli strains. E. coli (pSF815) and E. coli (pET9d) are laboratory resistant strains derived by transformation of E. coli XL1 blue (background strain) with the pSF815 and pET9d plasmids, respectively. […] The last two isogenic strains used were E. coli BL21 (background strain) and E. coli (pETSACG1). […] These three enzymes are among the most prevalent modes of resistance found in aminoglycosides resistance strains.\n(§3) The MIC ratios were calculated by dividing the MIC value against resistant strain to that against the respective background strain."}, "E. coli XL1 blue/pET9d": {"system": "E. coli XL1 blue/pET9d", "test": "microbe, parasite or virus in culture", "format": "cell-based", "protocol": "as §2, §3"}, "E. coli XL1 blue/pSF815": {"system": "E. coli XL1 blue/pSF815", "test": "microbe, parasite or virus in culture", "format": "cell-based", "conditions": "Escherichia coli, XL1BLUE/PSF815, read-out: MIC XL1 blue/pSF815", "protocol": "as §2, §3"}, "E. coli BL21/pETSACG1": {"system": "E. coli BL21/pETSACG1", "test": "microbe, parasite or virus in culture", "format": "cell-based", "protocol": "as §2, §3"}, "E. coli BL21": {"system": "E. coli BL21", "test": "microbe, parasite or virus in culture", "format": "cell-based", "conditions": "Escherichia coli, BL21; background strain", "protocol": "as §2, §3"}, "E. coli TopoIV": {"biological_target": "T2, E. coli TopoIV (Escherichia coli, UniProt P0AFI2+P20083)", "T2 construct": "purchased Inspiralis Ltd", "T2 sequence (P0AFI2 whole entry)": "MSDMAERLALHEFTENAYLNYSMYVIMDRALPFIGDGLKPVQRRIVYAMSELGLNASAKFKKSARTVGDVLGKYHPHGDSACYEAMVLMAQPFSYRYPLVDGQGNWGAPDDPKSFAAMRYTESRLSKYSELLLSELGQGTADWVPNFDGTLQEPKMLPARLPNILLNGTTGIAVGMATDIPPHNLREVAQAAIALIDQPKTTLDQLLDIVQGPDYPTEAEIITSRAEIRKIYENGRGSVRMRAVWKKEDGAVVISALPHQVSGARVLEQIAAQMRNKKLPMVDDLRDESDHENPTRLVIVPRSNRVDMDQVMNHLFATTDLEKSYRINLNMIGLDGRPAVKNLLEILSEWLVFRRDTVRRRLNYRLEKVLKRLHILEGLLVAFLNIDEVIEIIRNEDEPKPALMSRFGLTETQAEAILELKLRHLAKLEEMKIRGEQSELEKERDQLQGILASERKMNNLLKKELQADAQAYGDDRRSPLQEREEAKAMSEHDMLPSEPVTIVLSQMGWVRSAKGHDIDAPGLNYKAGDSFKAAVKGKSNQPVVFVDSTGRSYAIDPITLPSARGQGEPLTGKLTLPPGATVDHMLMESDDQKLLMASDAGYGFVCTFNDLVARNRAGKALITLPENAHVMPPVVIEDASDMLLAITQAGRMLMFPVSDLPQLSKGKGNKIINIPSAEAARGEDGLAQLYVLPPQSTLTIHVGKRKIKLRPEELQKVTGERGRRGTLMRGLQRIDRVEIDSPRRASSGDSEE", "T2 sequence (P20083 whole entry)": "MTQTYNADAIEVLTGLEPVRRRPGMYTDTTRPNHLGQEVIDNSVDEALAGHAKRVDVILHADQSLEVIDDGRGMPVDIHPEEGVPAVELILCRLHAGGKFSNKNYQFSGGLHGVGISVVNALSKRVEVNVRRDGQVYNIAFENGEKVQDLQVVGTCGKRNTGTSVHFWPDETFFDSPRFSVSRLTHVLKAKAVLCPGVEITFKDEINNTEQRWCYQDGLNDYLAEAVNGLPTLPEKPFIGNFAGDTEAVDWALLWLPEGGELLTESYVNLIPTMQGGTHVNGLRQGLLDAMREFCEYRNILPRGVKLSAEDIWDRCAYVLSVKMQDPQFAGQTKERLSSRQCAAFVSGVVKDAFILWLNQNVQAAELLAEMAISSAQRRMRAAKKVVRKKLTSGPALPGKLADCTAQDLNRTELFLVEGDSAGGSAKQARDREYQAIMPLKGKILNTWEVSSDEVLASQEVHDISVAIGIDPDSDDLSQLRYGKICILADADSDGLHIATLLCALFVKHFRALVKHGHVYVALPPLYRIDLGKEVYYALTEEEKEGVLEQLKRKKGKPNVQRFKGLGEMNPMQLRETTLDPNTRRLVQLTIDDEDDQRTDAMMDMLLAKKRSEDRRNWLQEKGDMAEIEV", "test": "TopoIV relaxation assay", "format": "biochemical", "conditions": "relaxation assay, supercoiled pBR322", "protocol": "DNA relaxation activity was assayed with supercoiled pBR322 DNA as a substrate (Inspiralis Ltd) according to the manufacturer's protocol. The standard reaction mixture (20 μl) contained 40 mM HEPES-KOH pH 7.6, 100 mM potassium glutamate, 10 mM Mg(OAc)2, 10 mM dithiothreitol, 1 mM ATP, 50 μg/ml albumin, 5 ng/μl […] pBR322, and TopoIV protein. The reaction mixture was incubated at 37° C. for 30 minutes, and then was terminated by addition of 2 μl 0.5 M EDTA, 3.5 μl loading dye and 20 μl chloroform/isoamyl alcohol (24:1) mixture. […] One unit of relaxation activity was defined as the amount of TopoIV required to relax 0.1 μg of plasmid in 30 minutes.\nas §1"}, "B. subtilis ATCC 6633 [2]": {"system": "B. subtilis ATCC 6633", "test": "microbe, parasite or virus in culture", "format": "cell-based", "conditions": "for MIC: Bacillus subtilis", "protocol": "(§4) In parallel, MIC evolution during these subcultures was compared concomitantly with each new generation, using bacteria harvested from control wells (wells cultured without antimicrobial agent from the previous generation). The relative MIC was calculated for each experiment from the ratio of MIC obtained for a given subculture to that obtained for first-time exposure."}, "E. coli ATCC 35218": {"system": "E. coli ATCC 35218", "test": "microbe, parasite or virus in culture", "format": "cell-based", "conditions": "for MIC: Escherichia coli", "protocol": "as §4"}, "B. subtilis ATCC 6633 [3]": {"system": "B. subtilis ATCC 6633", "test": "MIC, double-microdilution, B. subtilis ATCC 6633", "format": "cell-based", "conditions": "Bacillus subtilis, ATCC6633; Table 4; read-out: MIC B. subtilis ATCC 6633"}, "E. coli AG100B": {"system": "E. coli AG100B", "test": "MIC, double-microdilution, E. coli AG100B", "format": "cell-based, Escherichia coli", "conditions": "Escherichia coli, AG100B, read-out: MIC E. coli AG100B, Table 4; kanamycin resistant, APH(3′)-I", "text": "AG100B and AG100A are two kanamycin resistant Escherichia coli strains expressing APH(3′)-I aminoglycoside resistance enzyme."}, "[4]": {"conditions": "MIC resistant strain divided by MIC background strain"}, "[5]": {"conditions": "MIC of subculture to MIC upon first exposure"}},
  "note": "Where two headings read alike, the source gives them in different places.",
  "data": [
    {"smiles": "NC[C@@H]1O[C@H](O[C@H]2[C@@H](O)[C@H](O[C@@H]3[C@@H](O)[C@H](N)C[C@H](N)[C@H]3O[C@H]3O[C@H](CN)[C@@H](O)[C@H](O)[C@H]3N)O[C@@H]2CO)[C@H](N)[C@@H](O)[C@@H]1O", "note": "[NeoB, neomycin B, reference compound]", "values": [
      {"measurement": "DNA gyrase IC50", "setting": "E. coli DNA gyrase", "value": "inactive"},
      {"measurement": "kcat", "setting": "APH(3′)-IIIa enzyme", "value": "2.4 ± 0.1", "unit": "s⁻¹"},
      {"measurement": "MIC", "setting": "E. coli ATCC 25922", "value": 48, "unit": "µg/mL"},
      {"measurement": "MIC", "setting": "E. coli AG100A", "value": 96, "unit": "µg/mL"},
      {"measurement": "MIC", "setting": "E. coli R477-100", "value": 24, "unit": "µg/mL"},
      {"measurement": "IC50", "setting": "[1]", "value": "10.5 ± 0.1", "unit": "µM"},
      {"measurement": "MIC", "setting": "MRSA ATCC 43300", "value": 384, "unit": "µg/mL"},
      {"measurement": "MIC", "setting": "E. coli XL1 blue", "value": 6, "unit": "µg/mL"},
      {"measurement": "MIC", "setting": "E. coli XL1 blue/pET9d; Escherichia coli, XL1BLUE/PET9D, read-out: MIC XL1 blue/pET9d", "value": 96, "unit": "µg/mL"},
      {"measurement": "MIC ratio XL1 blue/pET9d to XL1 blue", "setting": "E. coli XL1 blue/pET9d; [4]", "value": 16},
      {"measurement": "MIC", "setting": "E. coli XL1 blue/pSF815", "value": "> 384", "unit": "µg/mL"},
      {"measurement": "MIC", "setting": "E. coli BL21/pETSACG1; Escherichia coli, BL21/PETSACG1, read-out: MIC BL21/pETSACG1", "value": 48, "unit": "µg/mL"},
      {"measurement": "MIC ratio BL21/pETSACG1 to BL21", "setting": "E. coli BL21/pETSACG1; [4]", "value": 8},
      {"measurement": "MIC", "setting": "E. coli BL21", "value": 6, "unit": "µg/mL"},
      {"measurement": "TopoIV IC50", "setting": "E. coli TopoIV", "value": "inactive"},
      {"measurement": "MIC", "setting": "B. subtilis ATCC 6633 [2]; ATCC6633, read-out: MIC 1st passage, B.subtilis ATCC 6633", "value": 0.75, "unit": "µg/mL"},
      {"measurement": "MIC", "setting": "B. subtilis ATCC 6633 [2]; ATCC6633, read-out: MIC 15th passage, B.subtilis ATCC 6633", "value": 6, "unit": "µg/mL"},
      {"measurement": "Ratio (relative MIC) 15th/1st passage, B.subtilis ATCC 6633", "setting": "B. subtilis ATCC 6633 [2]; [5]", "value": 8},
      {"measurement": "MIC", "setting": "E. coli ATCC 35218; ATCC35218, read-out: MIC 1st passage, E.coli ATCC 35218", "value": 12, "unit": "µg/mL"},
      {"measurement": "MIC", "setting": "E. coli ATCC 35218; ATCC35218, read-out: MIC 15th passage, E.coli ATCC 35218", "value": 48, "unit": "µg/mL"},
      {"measurement": "Ratio (relative MIC) 15th/1st passage, E.coli ATCC 35218", "setting": "E. coli ATCC 35218; [5]", "value": 4},
      {"measurement": "MIC", "setting": "B. subtilis ATCC 6633 [3]", "value": 1.5, "unit": "µg/mL"},
      {"measurement": "MIC", "setting": "E. coli AG100B", "value": 384, "unit": "µg/mL"}
    ]}
  ]
}
